Source: publication PMC2933939 (Bioorganic & medicinal chemistry, 2010)
Where two headings read alike, the source gives them in different places. Non-standard residues stand in square brackets, D forms with d. Residues, ends and D or L forms follow the SMILES beside them. *: point of attachment. dNMeF = CN[C@H](Cc1ccccc1)C(=O)O; Cha = N[C@@H](CC1CCCCC1)C(=O)O; NMeK = CN[C@@H](CCCCN)C(=O)O; dNMeK = CN[C@H](CCCCN)C(=O)O; ClZ = O=C(OCc1ccccc1Cl)*; Bn = c1ccc(C*)cc1

How the values were obtained:
colon cancers = details: drug of choice for colon cancer treatment; no reference given; cited from earlier work
[1] = tested on: HCT-116 colon cancer cells; experiment: 3H-thymidine uptake cytotoxicity assay; format: cell-based

| Structure (SMILES) | cytotoxicity (in words) [1] | other results |
| --- | --- | --- |
| O=c1[nH]cc(F)c(=O)[nH]1 [Compound 5-FU, 5-fluorouracil] | – | IC50 (colon cancers): 5 µM |
| CC(C)[C@H]1NC(=O)[C@@H](Cc2ccccc2)N(C)C(=O)[C@H](Cc2ccccc2)NC(=O)[C@H](COCc2ccccc2)NC(=O)[C@H](CC2CCCCC2)NC1=O [Compound 19, Phe-N-Me-D-Phe-D-Val-Cha-Ser(Bn)] (cyclo([Cha]S(Bn)F[dNMeF][dV])) | – | half-life (Half-life (minutes) n1, n1): 45 min; half-life (Half-life (minutes) n2, n2): 30 min |
| CC(C)[C@H]1NC(=O)[C@@H](Cc2ccccc2)NC(=O)[C@H](Cc2ccccc2)NC(=O)[C@H](COCc2ccccc2)NC(=O)[C@H](CC2CCCCC2)NC1=O [Compound 20, Phe-D-Phe-D-Val-Cha-Ser(Bn)] (cyclo([Cha]S(Bn)F[dF][dV])) | little cytotoxic activity | – |
| CC(C)C[C@@H]1NC(=O)[C@H](C(C)C)NC(=O)[C@@H](Cc2ccccc2)N(C)C(=O)[C@H](Cc2ccccc2)NC(=O)[C@H](CCCCN)NC1=O [Compound 30, Phe-N-Me-D-Phe-Val-Leu-Lys] (cyclo(F[dNMeF]VLK)) | not active | – |
| CC(C)C[C@@H]1NC(=O)[C@H](Cc2ccccc2)NC(=O)[C@H](CCCCN)NC(=O)[C@H](CC(C)C)NC(=O)[C@H](C(C)C)NC1=O [Compound 32, Phe-Leu-Val-Leu-Lys] (cyclo(FLVLK)) | inactive | – |
| CC(C)C[C@@H]1NC(=O)[C@H](Cc2ccccc2)NC(=O)[C@H](CCCCN)N(C)C(=O)[C@H](CC(C)C)NC(=O)[C@H](C(C)C)NC1=O [Compound 35, Phe-Leu-Val-Leu-N-Me-Lys] (cyclo(FLVL[NMeK])) | inactive | – |
| CC(C)C[C@@H]1NC(=O)[C@H](Cc2ccccc2)NC(=O)[C@H](CCCCN)NC(=O)[C@H](CC(C)C)NC(=O)[C@@H](C(C)C)NC1=O [Compound 37, Phe-Leu-D-Val-Leu-Lys] (cyclo(FL[dV]LK)) | inactive | – |
| CC(C)C[C@@H]1NC(=O)[C@H](Cc2ccccc2)NC(=O)[C@@H](Cc2ccccc2)NC(=O)[C@@H](CCCCNC(=O)OCc2ccccc2Cl)N(C)C(=O)[C@H](C(C)C)NC1=O [Compound 41, Phe-Leu-Val-N-Me-D-Lys(Cl-Cbz)-D-Phe] (cyclo(FLV[dNMeK](ClZ)[dF])) | not very potent at all | – |
| CC(C)C[C@@H]1NC(=O)[C@H](Cc2ccccc2)NC(=O)[C@@H](Cc2ccccc2)N(C)C(=O)[C@@H](CCCCNC(=O)OCc2ccccc2Cl)NC(=O)[C@H](C(C)C)NC1=O [Compound 42, Phe-Leu-Val-D-Lys(Cl-Cbz)-N-Me-D-Phe] (cyclo(FLV[dK](ClZ)[dNMeF])) | remarkable cytotoxicity | – |
